Source: PubChem BioAssay AID2060499 (Molecular Pharmacology Branch, DTP, NCI, 2025)

Test system: 777334-354-R2-J4-PDC tumor spheroids with HUVEC/MSC, viability
Assay: Anticancer human tumor 777334-354-R2-J4-PDC patient-derived pancreatic adenocarcinoma cell line growth inhibition [GQUAD]
Conditions: for IC50: curve of first compound; for viability, T/C: stronger effect = lower value; active means viability on the fitted dose curve at most 10% of control; inactive means the rest
Method in brief: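 Multi-cell-type spheroids of tumor cells with HUVEC and mesenchymal stem cells, treated with drug combinations. Concentrations descend in half-log steps from near clinical Cmax, or from 10 microM where Cmax is unknown; viability read-out.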

[1] = second compound 0.0316 µM, first compound 0.0316 µM
[2] = second compound 0.0316 µM, first compound 0.1 µM
[3] = second compound 0.0316 µM, first compound 0.316 µM
[4] = second compound 0.0316 µM, first compound 1 µM
[5] = second compound 0.0316 µM, first compound 3.16 µM
[6] = second compound 0.0316 µM, first compound 10 µM
[7] = second compound 0.1 µM, first compound 0.0316 µM
[8] = second compound 0.1 µM, first compound 0.1 µM
[9] = second compound 0.1 µM, first compound 0.316 µM
[10] = second compound 0.1 µM, first compound 1 µM
[11] = second compound 0.1 µM, first compound 3.16 µM
[12] = second compound 0.1 µM, first compound 10 µM
[13] = second compound 0.316 µM, first compound 0.0316 µM
[14] = second compound 0.316 µM, first compound 0.1 µM
[15] = second compound 0.316 µM, first compound 0.316 µM
[16] = second compound 0.316 µM, first compound 1 µM
[17] = second compound 0.316 µM, first compound 3.16 µM
[18] = second compound 0.316 µM, first compound 10 µM
[19] = second compound 1 µM, first compound 0.0316 µM
[20] = second compound 1 µM, first compound 0.1 µM
[21] = second compound 1 µM, first compound 0.316 µM
[22] = second compound 1 µM, first compound 1 µM
[23] = second compound 1 µM, first compound 3.16 µM
[24] = second compound 1 µM, first compound 10 µM
[25] = second compound 3.16 µM, first compound 0.0316 µM
[26] = second compound 3.16 µM, first compound 0.1 µM
[27] = second compound 3.16 µM, first compound 0.316 µM
[28] = second compound 3.16 µM, first compound 1 µM
[29] = second compound 3.16 µM, first compound 3.16 µM
[30] = second compound 3.16 µM, first compound 10 µM
[31] = second compound 10 µM, first compound 0.0316 µM
[32] = second compound 10 µM, first compound 0.1 µM
[33] = second compound 10 µM, first compound 0.316 µM
[34] = second compound 10 µM, first compound 1 µM
[35] = second compound 10 µM, first compound 3.16 µM
[36] = second compound 10 µM, first compound 10 µM
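Further: spheroids exposed to compounds for 7 days before readout.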

C#Cc1c(F)ccc2cc(O)cc(-c3ncc4c(N5CC6CCC(C5)N6)nc(OCC56CCCN5CC(F)C6)nc4c3F)c12 (stereo not drawn) + Cc1cnc(CNC(=O)c2c(=O)c3ccc(N4CCCN(C)CC4)nc3n3c2sc2ccccc23)cn1
inactive: viability, T/C [1] 49.7% | viability, T/C [2] 38.7% | viability, T/C [3] 31.4% | viability, T/C [4] 31.6% | viability, T/C [5] 27.1% | viability, T/C [6] 24.2% | viability, T/C [7] 45.1% | viability, T/C [8] 34.4% | viability, T/C [9] 30.9% | viability, T/C [10] 26.4% | viability, T/C [11] 23.5% | viability, T/C [12] 21.3% | viability, T/C [13] 39.6% | viability, T/C [14] 33.8% | viability, T/C [15] 28.8% | viability, T/C [16] 25.6% | viability, T/C [17] 22.6% | viability, T/C [18] 19.9% | viability, T/C [19] 36.2% | viability, T/C [20] 29.4% | viability, T/C [21] 31.1% | viability, T/C [22] 23.6% | viability, T/C [23] 21.9% | viability, T/C [24] 19.4% | viability, T/C [25] 28% | viability, T/C [26] 25.5% | viability, T/C [27] 22.8% | viability, T/C [28] 19.2% | viability, T/C [29] 17.5% | viability, T/C [30] 14.4% | viability, T/C [31] 22% | viability, T/C [32] 16.7% | viability, T/C [33] 15% | viability, T/C [34] 8.71%
< 31.6 nM: IC50 (second compound 0.0316 µM) | IC50 (second compound 0.1 µM) | IC50 (second compound 0.316 µM) | IC50 (second compound 1 µM) | IC50 (second compound 3.16 µM) | IC50 (second compound 10 µM)
active: viability, T/C [35] 8.87% | viability, T/C [36] 3.17%

CC(=O)O[C@H]1C(=O)[C@@]2(C)[C@H]([C@H](OC(=O)c3ccccc3)[C@]3(O)C[C@H](OC(=O)[C@H](O)[C@@H](NC(=O)c4ccccc4)c4ccccc4)C(C)=C1C3(C)C)[C@]1(OC(C)=O)CO[C@@H]1C[C@@H]2O + Cc1cnc(CNC(=O)c2c(=O)c3ccc(N4CCCN(C)CC4)nc3n3c2sc2ccccc23)cn1
inactive: viability, T/C [1] 70% | viability, T/C [2] 49.9% | viability, T/C [3] 53.5% | viability, T/C [4] 43% | viability, T/C [5] 52.1% | viability, T/C [6] 52.8% | viability, T/C [7] 78.2% | viability, T/C [8] 54.7% | viability, T/C [9] 61.6% | viability, T/C [10] 45.4% | viability, T/C [11] 60.9% | viability, T/C [12] 59.7% | viability, T/C [13] 74.3% | viability, T/C [14] 61.9% | viability, T/C [15] 61.5% | viability, T/C [16] 68.1% | viability, T/C [17] 64.2% | viability, T/C [18] 62.1% | viability, T/C [19] 65% | viability, T/C [20] 63.5% | viability, T/C [21] 61% | viability, T/C [22] 67.3% | viability, T/C [23] 80.5% | viability, T/C [24] 70.1% | viability, T/C [25] 57% | viability, T/C [26] 66.5% | viability, T/C [27] 63.6% | viability, T/C [28] 58.4% | viability, T/C [29] 71.6% | viability, T/C [30] 74.1% | viability, T/C [31] 61.2% | viability, T/C [32] 50.1% | viability, T/C [33] 55.8% | viability, T/C [34] 58.4% | viability, T/C [35] 60.6% | viability, T/C [36] 52.3%
> 10000 nM: IC50 (second compound 0.0316 µM) | IC50 (second compound 0.1 µM) | IC50 (second compound 0.316 µM) | IC50 (second compound 1 µM) | IC50 (second compound 3.16 µM) | IC50 (second compound 10 µM)

Cc1[nH]c2ccccc2c1CCNCc1ccc(/C=C/C(=O)NO)cc1 + Cc1cnc(CNC(=O)c2c(=O)c3ccc(N4CCCN(C)CC4)nc3n3c2sc2ccccc23)cn1
< 0.999 nM: IC50 (second compound 10 µM)
114 nM: IC50 (second compound 1 µM)
144 nM: IC50 (second compound 0.0316 µM)
active: viability, T/C [33] 1.07%
89.3 nM: IC50 (second compound 3.16 µM)
inactive: viability, T/C (second compound 0.0316 µM, first compound 0.000999 µM) 95.1% | viability, T/C (second compound 0.0316 µM, first compound 0.00316 µM) 89.1% | viability, T/C (second compound 0.0316 µM, first compound 0.00999 µM) 93.1% | viability, T/C [1] 73.6% | viability, T/C (second compound 0.0316 µM, first compound 0.0999 µM) 57.9% | viability, T/C [3] 35.5% | viability, T/C (second compound 0.1 µM, first compound 0.000999 µM) 83.1% | viability, T/C (second compound 0.1 µM, first compound 0.00316 µM) 69.4% | viability, T/C (second compound 0.1 µM, first compound 0.00999 µM) 68.1% | viability, T/C [7] 73.2% | viability, T/C (second compound 0.1 µM, first compound 0.0999 µM) 58.9% | viability, T/C [9] 35.3% | viability, T/C (second compound 0.316 µM, first compound 0.000999 µM) 73.7% | viability, T/C (second compound 0.316 µM, first compound 0.00316 µM) 79.5% | viability, T/C (second compound 0.316 µM, first compound 0.00999 µM) 58.2% | viability, T/C [13] 69.3% | viability, T/C (second compound 0.316 µM, first compound 0.0999 µM) 53.7% | viability, T/C [15] 32.9% | viability, T/C (second compound 1 µM, first compound 0.000999 µM) 70.8% | viability, T/C (second compound 1 µM, first compound 0.00316 µM) 66.2% | viability, T/C (second compound 1 µM, first compound 0.00999 µM) 68.2% | viability, T/C [19] 58.1% | viability, T/C (second compound 1 µM, first compound 0.0999 µM) 56% | viability, T/C [21] 26.4% | viability, T/C (second compound 3.16 µM, first compound 0.000999 µM) 58% | viability, T/C (second compound 3.16 µM, first compound 0.00316 µM) 58.6% | viability, T/C (second compound 3.16 µM, first compound 0.00999 µM) 59.4% | viability, T/C [25] 53.8% | viability, T/C (second compound 3.16 µM, first compound 0.0999 µM) 50.3% | viability, T/C [27] 18.6% | viability, T/C (second compound 10 µM, first compound 0.000999 µM) 53.2% | viability, T/C (second compound 10 µM, first compound 0.00316 µM) 46.2% | viability, T/C (second compound 10 µM, first compound 0.00999 µM) 51.7% | viability, T/C [31] 46.1% | viability, T/C (second compound 10 µM, first compound 0.0999 µM) 42.6%
155 nM: IC50 (second compound 0.1 µM)
122 nM: IC50 (second compound 0.316 µM)

O=c1[nH]cc(F)c(=O)[nH]1 + Cc1cnc(CNC(=O)c2c(=O)c3ccc(N4CCCN(C)CC4)nc3n3c2sc2ccccc23)cn1
> 10000 nM: IC50 (second compound 0.0316 µM) | IC50 (second compound 0.1 µM) | IC50 (second compound 0.316 µM) | IC50 (second compound 1 µM) | IC50 (second compound 3.16 µM) | IC50 (second compound 10 µM)
inactive: viability, T/C [1] 97.7% | viability, T/C [2] 94.8% | viability, T/C [3] 91.9% | viability, T/C [4] 87.9% | viability, T/C [5] 69.5% | viability, T/C [6] 64.5% | viability, T/C [7] 82.4% | viability, T/C [8] 84.8% | viability, T/C [9] 89% | viability, T/C [10] 80.1% | viability, T/C [11] 82% | viability, T/C [12] 68.3% | viability, T/C [13] 85.3% | viability, T/C [14] 82.8% | viability, T/C [15] 73.8% | viability, T/C [16] 75.8% | viability, T/C [17] 74.7% | viability, T/C [18] 66.5% | viability, T/C [19] 71.3% | viability, T/C [20] 66.8% | viability, T/C [21] 68% | viability, T/C [22] 67.7% | viability, T/C [23] 73.2% | viability, T/C [24] 65.7% | viability, T/C [25] 59.4% | viability, T/C [26] 73.2% | viability, T/C [27] 67.3% | viability, T/C [28] 61.6% | viability, T/C [29] 68.8% | viability, T/C [30] 56% | viability, T/C [31] 57.7% | viability, T/C [32] 61.9% | viability, T/C [33] 59% | viability, T/C [34] 59.7% | viability, T/C [35] 50.8% | viability, T/C [36] 51.8%
